According to patent US20070082055A1, “Stable micronized candesartan cilexetil and methods for preparing thereof” (priority 2005, published 2007):
Where “and” joins values, the source holds several entries; their conditions need not be identical. Equal entries are not always repeated. Where two headings read alike, the source gives them in different places.

Experiments:
[1] = for Desethyl-CNS: as obtained
[2] = cited from earlier work
[3] = after maintaining for 2 weeks (oven at 55° C.)
[4] = Table 3, after 2 weeks at 55° C.

Structure (SMILES): CCOc1nc2cccc(C(=O)OC(C)OC(=O)OC3CCCCC3)c2n1Cc1ccc(-c2ccccc2-c2nnn[nH]2)cc1 (centres unmarked) [Slurried fine particle size sample, candesartan cilexetil]
- CNS desethyl ([1]; 2 weeks, HPLC): 0.10 w/w % and 0.06 w/w %
- CNS desethyl ([1]; T = 0, HPLC): 0.08 w/w % and 0.03 w/w %

Structure (SMILES): CCOc1nc2cccc(C(=O)OC(C)OC(=O)OC3CCCCC3)c2n1Cc1ccc(-c2ccccc2-c2nnn[nH]2)cc1 (centres unmarked) [micronized CNS-Cryst, candesartan cilexetil]
- level of desethyl-CNS [1, 3]: 0.41 % w/w by HPLC
- level of desethyl-CNS ([1]; before storage): 0.24 % w/w by HPLC

Structure (SMILES): CCOc1nc2cccc(C(=O)OC(C)OC(=O)OC3CCCCC3)c2n1Cc1ccc(-c2ccccc2-c2nnn[nH]2)cc1 (centres unmarked) [Sample 1B, candesartan cilexetil]
- 1-N-ethyl CNS [1, 4]: 0.04 w/w %
- 2-N-ethyl CNS [1, 4]: 0.15 w/w %
- CNS desethyl [1, 4]: 0.20 w/w %

Structure (SMILES): CCOc1nc2cccc(C(=O)OC(C)OC(=O)OC3CCCCC3)c2n1Cc1ccc(-c2ccccc2-c2nnn[nH]2)cc1 (centres unmarked) [Product, candesartan cilexetil]
- 1-N-ethyl CNS ([1]; Table 3, before storage): LTDL (LTDL means less than detection limit)
- 2-N-ethyl CNS ([1]; Table 3, before storage): 0.03 w/w %
- CNS desethyl ([1]; Table 3, before storage): 0.05 w/w %
- level of desethyl-CNS ([1]; before storage): 0.05 % w/w by HPLC

Structure (SMILES): CCOc1nc2cccc(C(=O)OC(C)OC(=O)OC3CCCCC3)c2n1Cc1ccc(-c2ccccc2-c2nnn[nH]2)cc1 (centres unmarked) [Product B, candesartan cilexetil]
- 1-N-ethyl CNS [1, 4]: LTDL (LTDL means less than detection limit)
- 2-N-ethyl CNS [1, 4]: 0.03 w/w %
- CNS desethyl [1, 4]: 0.05 w/w %

Structure (SMILES): CCOc1nc2cccc(C(=O)OC(C)OC(=O)OC3CCCCC3)c2n1Cc1ccc(-c2ccccc2-c2nnn[nH]2)cc1 (centres unmarked) [micronized material, candesartan cilexetil]
- level of desethyl-CNS [1, 3]: 0.14 % w/w by HPLC
- level of desethyl-CNS ([1]; before storage): 0.04 % w/w by HPLC

Structure (SMILES): CCOc1nc2cccc(C(=O)OC(C)OC(=O)OC3CCCCC3)c2n1Cc1ccc(-c2ccccc2-c2nnn[nH]2)cc1 (centres unmarked) [stable micronized candesartan Form I, candesartan cilexetil]
- desethyl-CNS level ([1]; after maintaining for 2 weeks): 0.06 % area by HPLC
- level of desethyl-CNS ([1]; before storage): 0.03 % w/w by HPLC

Structure (SMILES): CCOc1nc2cccc(C(=O)OC(C)OC(=O)OC3CCCCC3)c2n1Cc1ccc(-c2ccccc2-c2nnn[nH]2)cc1 (centres unmarked) [Sample 1, candesartan cilexetil]
- 1-N-ethyl CNS ([1]; Table 3, before storage): LTDL (LTDL means less than detection limit)
- 2-N-ethyl CNS ([1]; Table 3, before storage): LTDL (LTDL means less than detection limit)
- CNS desethyl ([1]; Table 3, before storage): 0.04 w/w %

Structure (SMILES): CCOc1nc2cccc(C(=O)OC(C)OC(=O)OC3CCCCC3)c2n1Cc1ccc(-c2ccccc2-c2nnn[nH]2)cc1 (centres unmarked) [Fine particle size, candesartan cilexetil]
- 2-N-ethyl CNS ([1]; 2 weeks, HPLC): 0.09 w/w % and 0.29 w/w %
- CNS desethyl ([1]; 2 weeks, HPLC): 0.14 w/w % and 0.41 w/w %
- CNS desethyl ([1]; T = 0, HPLC): 0.04 w/w % and 0.24 w/w %

Structure (SMILES): CCOc1nc2cccc(C(=O)OC(C)OC(=O)OC3CCCCC3)c2n1Cc1ccc(-c2ccccc2-c2nnn[nH]2)cc1 (centres unmarked) [stable candesartan cilexetil Form I, candesartan cilexetil]
- level of desethyl-CNS ([1]; after maintaining for 2 weeks (oven at 55° C.), listed as obtained product): 0.10 % w/w by HPLC
- Desethyl-CNS ([1]; before storage): 0.08%

Structure (SMILES): CCOc1nc2cccc(C(=O)OC(C)OC(=O)OC3CCCCC3)c2n1Cc1ccc(-c2ccccc2-c2nnn[nH]2)cc1 (centres unmarked) [candesartan cilexetil]
- CNS-desethyl ([1]; fine particle size, time of slurry 3 hr, 2 weeks): 0.10 w/w %
- CNS-desethyl ([1]; fine particle size, time of slurry 3 hr, T = 0): 0.07 w/w %
- CNS-desethyl ([1]; fine particle size, time of slurry 6 hr, 2 weeks): 0.07 w/w %
- CNS-desethyl ([1]; fine particle size, time of slurry 6 hr, T = 0): 0.06 w/w %
- CNS-desethyl ([1]; fine particle size, time of slurry 9 hr, 2 weeks): 0.06 w/w %
- CNS-desethyl ([1]; fine particle size, time of slurry 9 hr, T = 0): 0.05 w/w %
- CNS-desethyl ([1]; fine particle size, time of slurry 13 hr, 2 weeks): 0.06 w/w %
- CNS-desethyl ([1]; fine particle size, time of slurry 13 hr, T = 0): 0.05 w/w %
- CNS-desethyl ([1]; fine particle size, time of slurry 23 hr, 2 weeks): 0.05 w/w %
- CNS-desethyl ([1]; fine particle size, time of slurry 23 hr, T = 0): 0.04 w/w %

Structure (SMILES): CCOc1nc2cccc(C(=O)OC(C)OC(=O)OC3CCCCC3)c2n1Cc1ccc(-c2ccccc2-c2nnn[nH]2)cc1 (racemic) [Candesartan cilexetil, (±)-1-[[(cyclohexyloxy)carbonyl]oxy]ethyl-2-ethoxy-1-[[2′-(1H-tetrazol-5-yl)[1,1 ′biphenyl]-4-yl]methyl]-1H-benzimidazole-7-carboxylate]
- CNS-desethyl ([1]; time of slurry 2 hr, 2 weeks): 0.07 w/w %
- CNS-desethyl ([1]; time of slurry 2 hr, T = 0): 0.03 w/w %
- CNS-desethyl ([1]; time of slurry 20 hr, 2 weeks): 0.03 w/w %
- CNS-desethyl ([1]; time of slurry 20 hr, T = 0): LTDL (LTDL means less than detection limit)
- solubility in methanol ([2]; methanol): sparingly soluble
- solubility in water ([2]; water): sparingly soluble

Structure (SMILES): CCOc1nc2cccc(C(=O)OC(C)OC(=O)OC3CCCCC3)c2n1Cc1ccc(-c2ccccc2-c2nnn[nH]2)cc1 (centres unmarked) [candesartan cilexetil Form I, candesartan cilexetil]
- level of desethyl-CNS [1, 3]: 0.07 % w/w by HPLC
- Desethyl-CNS ([1]; before storage): 0.03 % by area HPLC
